Measurements reported in patent US6071905A, “Biologically active substance on the basis of tetracyclic nitrogen heterocycles of pyrimidine row” (Natural Drug Sciences, LLC, priority 1998, dated 2000).
Converted amounts (≈) assume the structure as drawn.

Assays:
[1] = system: herpes virus I of the type (VPG-1/Leningrad/248/88); test: antiviral action on herpes virus in Vero cells (cytopathogenic action); assay type: cell-based; conditions: 36 hours, 38° C.
M. tuberculosis H37Rv = test: series culture (dilution) method, MIC, M. tuberculosis H37Rv; assay type: cell-based; conditions: Mycobacterium tuberculosis, 72 hour cultivation, 37° C., Soton medium with 10% horse serum
Experimental: In order to determine antimicrobial activity standard strains Mycobacterium smegmatis ATCC607 and Mycobacterium tuberculosis H37RV were used which are sensitive to all antimicrobial compounds.
The evaluation of antimicrobial action was performed with the method of series culture (5). M. smegmatis ATCC607 for seeding was grown on liquid synthetic medium N-1.
The compounds were dissolved in dimethyl sulfoxide (DMSO) and tittered in medium N-1, so that this compound was contained in separate test tubes with the medium in concentration of 200-0.025 mg/l. The concentration of the compound in the medium of neighboring test tubes was differed twice. For the control, DMSO which was tittered the same as the compound, was utilized. Test strain of bacteria was added in the quantity 1-2×10^6 ml. The result was considered after 72 hour cultivation of test tubes at 37° C.
For M tuberculosis H37Rv conditions of experiment were identical, with the exception of the fact that bacteria were grown on the Soton medium which contains 10% horse serum, and density of microbial suspension during seeding was (5.0×10^6) in ml.
As the control, in both cases known tuberculostatic compounds were utilized.

M. smegmatis ATCC607 = test: series culture (dilution) method, MIC, M. smegmatis ATCC607; assay type: cell-based, Mycobacterium smegmatis; conditions: Mycolicibacterium smegmatis, 72 hour cultivation, 37° C., medium N-1
M. avium 84 = test: action on pathogenic mycobacteria from patients, Lowenstein-Jensen medium, M. avium 84; assay type: cell-based, Mycobacterium avium; conditions: title: concentration of compound 10.0 g/l; 30 days
[2] = system: primary culture of human lymphocytes; test: interferon-inducing activity in primary culture of human lymphocytes (immuno-ferment assay); assay type: cell-based; conditions: 24 hours of incubation
C. trachomatis D323 = test: action on Chlamydia trachomatis in cell culture (McCoy and L929); assay type: cell-based; conditions: 48 hours
Vero = test: control of compounds (toxicity) on Vero cell culture; assay type: cell-based
M. bovis bovinus 8 = assay type: in vivo, M. bovis bovinus 8; no-breed male mice; conditions: for Coefficient of lung mass / Index of damage lungs / Perished animals: 42 day after infection; for Coefficient of lung mass / Index of damage lungs / Seeding M.tub.: dose not given; for Perished animals: tested compounds orally (10, 20 and 30 mg/kg), streptomycin intramuscularly; for Seeding M.tub.: from spleen, CFU per 100 mg
in vivo = conditions: mouse

In the case of `Nc1nc2c(ncn2COCCO)c(=O)[nH]1` [Acyclovir, reference compound], the “number of unchanged cells in 100 fields” value ([1]; 10 mg/l) is reported as 8000.
`CC[C@@H](CO)NCCN[C@@H](CC)CO` [Ethambutol, reference compound] showed an MIC (M. tuberculosis H37Rv) of 5 µg/mL (≈ 24.5 µM) and an MIC (M. smegmatis ATCC607) of 5 µg/mL (≈ 24.5 µM).
For `NNC(=O)c1ccncc1` [Isoniazid, hydrazide of izonicotinic acid, reference compound], the MIC (M. tuberculosis H37Rv) was 0.1 µg/mL (≈ 0.729 µM), the “antimicrobial action, M. avium 84” value (M. avium 84) was “growth” and the MIC (M. smegmatis ATCC607) was 1.5 µg/mL (≈ 10.9 µM).
For `CC1COc2c(N3CCN(C)CC3)c(F)cc3c(=O)c(C(=O)O)cn1c23` (centres unmarked) [Ofloxacin, reference compound], the MIC (M. tuberculosis H37Rv) was 0.5 µg/mL (≈ 1.38 µM) and the MIC (M. smegmatis ATCC607) was 0.5 µg/mL (≈ 1.38 µM).
With `O=c1c2cc([N+](=O)[O-])cc(Br)c2oc2nc3n(c(=O)c12)CCCS3` [R1=Br, R2-NO2, 1-bromo-3-nitro-5-oxo-5H-[1]-benzopyrano-[5,6-b]-4-oxo-4H-[1,2]-pyrimido-1,4,5,6-tetrahydro-1,3-thiazine] the MIC (M. tuberculosis H37Rv) was 25 µg/mL (≈ 60.9 µM) and the MIC (M. smegmatis ATCC607) was 100 µg/mL (≈ 244 µM).
For `O=c1c2cc([N+](=O)[O-])cc(Cl)c2oc2nc3n(c(=O)c12)CCCS3` [R1=Cl, R2=NO2, 1-chloro-3-nitro-5-oxo-5H-[1]-benzopyrano-[5,6-b]-4-oxo-4H-[1,2]-pyrimido-1,4,5,6-tetrahydro-1,3-thiazine], the “Content of IFN in induction mixture” value ([2]; 1 μg/ml) was 3.6 ± 0.5 ME/3*10^4 limph./ml, the “Content of IFN in induction mixture” value ([2]; 10 μg/ml) was 18 ± 1.6 ME/3*10^4 limph./ml and the MIC (M. tuberculosis H37Rv) was 50 µg/mL (≈ 137 µM). For the same compound, the MIC (M. smegmatis ATCC607) was 100 µg/mL (≈ 273 µM).
With `O=c1c2cc(Br)ccc2oc2nc3n(c(=O)c12)CCCS3` [R1=H, R2=Br, 3-bromo-5-oxo-5H-[1]-benzopyrano-[5,6-b]-4-oxo-4H-[1,2]-pyrimido-1,4,5,6-tetrahydro-1,3-thiazine] the “Content of IFN in induction mixture” value ([2]; 1 μg/ml) was 14 ± 0.5 ME/3*10^4 limph./ml, the “Content of IFN in induction mixture” value ([2]; 10 μg/ml) was 84 ± 2.5 ME/3*10^4 limph./ml and the “Content of IFN in induction mixture” value ([2]; 100 μg/ml) was 192 ± 1.6 ME/3*10^4 limph./ml. For the same compound, the MIC (M. tuberculosis H37Rv) was 25 µg/mL (≈ 68.5 µM), the MIC (M. smegmatis ATCC607) was 50 µg/mL (≈ 137 µM) and the “Number of unchanged cells” value (C. trachomatis D323; 100 mg/l) was 7.000.
`O=c1c2cc(Cl)ccc2oc2nc3n(c(=O)c12)CCCS3` [R1=H, R2=Cl, 3-chloro-5-oxo-5H-[1]-benzopyrano-[5,6-b]-4-oxo-4H-[1,2]-pyrimido-1,4,5,6-tetrahydro-1,3-thiazine] showed an MIC (M. tuberculosis H37Rv) of 10 µg/mL (≈ 31.2 µM) and an MIC (M. smegmatis ATCC607) of 10 µg/mL (≈ 31.2 µM).
With `O=c1c2cc([N+](=O)[O-])ccc2oc2nc3n(c(=O)c12)CCCS3` [R1=H, R2=NO2, 3-nitro-5-oxo-5H-[1]-benzopyrano-[5,6-b]-4-oxo-4H-[1,2]-pyrimido-1,4,5,6-tetrahydro-1,3-thiazine] the “Content of IFN in induction mixture” value ([2]; 1 μg/ml) was 4.2 ± 0.8 ME/3*10^4 limph./ml, the “Content of IFN in induction mixture” value ([2]; 10 μg/ml) was 20 ± 1.2 ME/3*10^4 limph./ml and the “Content of IFN in induction mixture” value ([2]; 100 μg/ml) was 48 ± 1.2 ME/3*10^4 limph./ml. For the same compound, the “toxicity of compounds to cells” value (Vero; 50 mg/l) was “toxic”, the “toxicity of compounds to cells” value (Vero; 100 mg/l) was “toxic” and the “number of unchanged cells in 100 fields” value ([1]; 10 mg/l) was 6000. For the same compound, the MIC (M. tuberculosis H37Rv) was 50 µg/mL (≈ 151 µM) and the MIC (M. smegmatis ATCC607) was 100 µg/mL (≈ 302 µM).
In the case of `COc1ccc2oc3nc4n(c(=O)c3c(=O)c2c1)CCCS4` [R1=H, R2=OCH3, 3-methoxy-5-oxo-5H-[1]-benzopyrano-[5,6-b]-4-oxo-4H-[1, 2]-pyrimido-1,4,5,6-tetrahydro-1,3-thiazine], the MIC (M. tuberculosis H37Rv) is reported as 50 µg/mL (≈ 158 µM) and the MIC (M. smegmatis ATCC607) is reported as 100 µg/mL (≈ 316 µM).
For `O=c1c2cc(O)ccc2oc2nc3n(c(=O)c12)CCCS3` [R1=H, R2=OH, 3-hydroxy-5-oxo-5H-[1]-benzopyrano-[5,6-b]-4-oxo-4H-[1,2]-pyrimido-1,4,5,6-tetrahydro-1,3-thiazine], the MIC (M. tuberculosis H37Rv) was 50 µg/mL (≈ 165 µM) and the MIC (M. smegmatis ATCC607) was 100 µg/mL (≈ 331 µM).
For `O=c1c2cc(Br)cc(Br)c2oc2nc3n(c(=O)c12)CCCS3` [R1=R2=Br, 1,3-dibromo-5-oxo-5H-[1]-benzopyrano-[5,6-b]-4-oxo-4H-[1,2]-pyrimido-1,4,5,6-tetrahydro-1,3-thiazine], the “Coefficient of lung mass” value (M. bovis bovinus 8) was 2.30 con. units, the “Index of damage lungs” value (M. bovis bovinus 8) was 2.3 con. unit and the Perished animals (M. bovis bovinus 8) was 0%. For the same compound, the “Seeding M.tub.” value (M. bovis bovinus 8) was 180 CFU, the “Content of IFN in induction mixture” value ([2]; 1 μg/ml) was 4.0 ± 0.5 ME/3*10^4 limph./ml and the “Content of IFN in induction mixture” value ([2]; 10 μg/ml) was 23 ± 1.0 ME/3*10^4 limph./ml. The “Content of IFN in induction mixture” value ([2]; 100 μg/ml) was 47 ± 0.8 ME/3*10^4 limph./ml, the MIC (M. tuberculosis H37Rv) was 0.1 µg/mL (≈ 0.225 µM) and the MIC (M. smegmatis ATCC607) was 0.1 µg/mL (≈ 0.225 µM). For the same compound, the LD50 at 336 h (in vivo) was > 1500 mg/kg.
For `O=c1c2cc(Cl)cc(Cl)c2oc2nc3n(c(=O)c12)CCCS3` [R1=R2=Cl, 1,3-dichloro-5-oxo-5H-[1]-benzopyrano-[5,6-b]-4-oxo-4H-[1,2]-pyrimido-1,4,5,6-tetrahydro-1,3-thiazine], the “Coefficient of lung mass” value (M. bovis bovinus 8) was 2.42 con. units, the “Index of damage lungs” value (M. bovis bovinus 8) was 2.5 con. unit and the Perished animals (M. bovis bovinus 8) was 0%. The “Seeding M.tub.” value (M. bovis bovinus 8) was 195 CFU, the MIC (M. tuberculosis H37Rv) was 0.3 µg/mL (≈ 0.845 µM) and the MIC (M. smegmatis ATCC607) was 1 µg/mL (≈ 2.82 µM). For the same compound, the LD50 at 336 h (in vivo) was > 1500 mg/kg.
For `O=c1c2ccccc2oc2nc3n(c(=O)c12)CCCS3` [R1=R2=H, 5-oxo-5H-[1]-benzopyrano-[5,6-b]-4-oxo-4H-[1,2]-pyrimido-1,4,5,6-tetrahydro-1,3-thiazine], the “toxicity of compounds to cells” value (Vero; 100 mg/l) was “toxic”, the “number of unchanged cells in 100 fields” value ([1]; 10 mg/l) was 3000 and the “number of unchanged cells in 100 fields” value ([1]; 50 mg/l) was 6000. For the same compound, the MIC (M. tuberculosis H37Rv) was 0.6 µg/mL (≈ 2.1 µM), the MIC (M. smegmatis ATCC607) was 0.3 µg/mL (≈ 1.05 µM) and the LD50 at 336 h (in vivo) was > 1500 mg/kg. For the same compound, the “Number of unchanged cells” value (C. trachomatis D323; 10 mg/l) was 7.200.
In the case of `CO[C@H]1/C=C/O[C@@]2(C)Oc3c(C)c(O)c4c(O)c(cc(O)c4c3C2=O)NC(=O)/C(C)=C\C=C\[C@H](C)[C@H](O)[C@@H](C)[C@@H](O)[C@@H](C)[C@H](OC(C)=O)[C@@H]1C` [Rifamycin, reference compound], the MIC (M. tuberculosis H37Rv) is reported as 0.05 µg/mL (≈ 0.0717 µM), the “antimicrobial action, M. avium 84” value (M. avium 84) is reported as “growth” and the MIC (M. smegmatis ATCC607) is reported as 0.25 µg/mL (≈ 0.358 µM).
For `[H]/N=C(/N)N[C@H]1[C@H](O)[C@@H](O)[C@H](O[C@@H]2O[C@@H](C)[C@](O)(C=O)[C@H]2O[C@@H]2O[C@@H](CO)[C@H](O)[C@@H](O)[C@@H]2NC)[C@@H](N/C(N)=N\[H])[C@@H]1O` [Streptomycin, reference compound], the “Coefficient of lung mass” value (M. bovis bovinus 8) was 2.47 con. units, the “Index of damage lungs” value (M. bovis bovinus 8) was 2.45 con. unit and the Perished animals (M. bovis bovinus 8) was 0%. For the same compound, the “Seeding M.tub.” value (M. bovis bovinus 8) was 200 CFU, the MIC (M. tuberculosis H37Rv) was 0.2 µg/mL (≈ 0.344 µM) and the “antimicrobial action, M. avium 84” value (M. avium 84) was “growth”. It also gave an MIC (M. smegmatis ATCC607) of 0.15 µg/mL (≈ 0.258 µM).
